In patent US20260109715A1, “IMIDAZOPYRIDINE DERIVATIVES WITH BICYCLIC STRUCTURE” (PUBLIC UNIVERSITY CORPORATION YOKOHAMA CITY UNIVERSITY, priority 2022, published 2026):
Where two headings read alike, the source gives them in different places.

Experiments:
[1] = system: Snhg1 transcript (NMD target gene) in EMT6 murine breast cancer cell line; test: Measurement of NMD inhibitory activity in cells (increase in Snhg1 transcript, real-time PCR); set-up: species or system mouse; conditions: 6 hours treatment, concentration giving 1/2 of maximum Snhg1 fold change of positive control, read-out: Test Example 2 Cell-based Snhg1 EC50
Procedure, shortened: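 EMT6 cells treated with serially diluted compound (2% DMSO final) for 6 h; Snhg1 transcript quantified by real-time PCR (ΔΔCT, Tbp endogenous control, untreated wells set to 1). EC50 taken as concentration giving half the maximum fold change of a known NMD inhibitor positive control.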

[2] = target: human SMG1 enzyme (Homo sapiens, UniProt Q96Q15); test: Measurement of SMG1 kinase activity (ADP-Glo Kinase Assay); assay type: biochemical; conditions: purified human SMG1 enzyme 5 nM, Upf1 peptide substrate, ATP 4 μM; qAC50 synonymous with IC50; read-out: Test Example 1 ADP-Glo IC50
Procedure, shortened: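 ADP-Glo luminescence readout of ADP made by 5 nM human SMG1 acting on 8 μg/mL Upf1 peptide with 4 μM ATP for 60 min at room temperature, after a 15 min enzyme–compound preincubation (1% DMSO; pH 7.5 HEPES, MnCl2). Activity scaled between DMSO and no-enzyme wells; IC50 by four-parameter logistic regression.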

[3] = system: Snhg1 transcript in tumor tissues of mice subcutaneously implanted with EMT6 murine breast cancer cell line; test: Evaluation of NMD inhibitory activity in vivo (Snhg1 transcript in EMT6 tumor tissue after oral administration); conditions: 6 hours after administration, BALB/c mice
Procedure: The NMD inhibitory activity of a compound of the present invention or a pharmaceutically acceptable salt thereof in vivo can be measured, for example, by the method described below. Using mice subcutaneously implanted with EMT6 murine breast cancer cell line, tumor tissues 6 hours after oral administration of a test substance are excised, and the increase in Snhg1 transcript is quantified as an indicator of NMD inhibition in the tumor, in the same manner as in the in vitro method.
In this test, NMD inhibitory activity in tumor tissues was evaluated when a test substance was orally administered to mice subcutaneously implanted with EMT6 murine breast cancer cell line. As an indicator of NMD inhibitory activity, the increase in the transcript of Snhg1, an NMD target gene, was quantified. First, BALB/c mice were subcutaneously implanted with EMT6 cells (ATCC), and engraftment was confirmed 7 days later. Six hours after administration of the test substance, mice were euthanized, and the collected tumor tissues were cryopreserved. RNA was extracted from the tumor tissues using the illustra RNAspin Mini RNA Isolation kit (GE Healthcare Life Sciences). After synthesizing cDNA using the High-Capacity cDNA Reverse Transcription Kits (Applied Biosystems, 4368813), the cDNA was mixed with PrimeTime Gene Expression Master Mix (Integrated DNA Technologies) and various probes, and gene expression was quantified by QuantStudio 6 Flex (Thermo Fisher Scientific Inc.). For the probe for the Snhg1 gene, which is an NMD target, Mm.PT.58.44039547 (FAM) (Integrated DNA Technologies) was used, and for the probe for the Gapdh gene, which is an endogenous control, Mm99999915_g2 (VIC-PL) (Applied Biosystems) was used. The relative quantification of Snhg1 transcripts in each sample was calculated by the ΔΔCT method using Gapdh as an endogenous control, and the expression level of Snhg1 in each test substance administration group was calculated by setting the expression level of the Vehicle group (0.5% methylcellulose administration group) to 1.

Chain of human SMG1 enzyme (Q96Q15 whole entry): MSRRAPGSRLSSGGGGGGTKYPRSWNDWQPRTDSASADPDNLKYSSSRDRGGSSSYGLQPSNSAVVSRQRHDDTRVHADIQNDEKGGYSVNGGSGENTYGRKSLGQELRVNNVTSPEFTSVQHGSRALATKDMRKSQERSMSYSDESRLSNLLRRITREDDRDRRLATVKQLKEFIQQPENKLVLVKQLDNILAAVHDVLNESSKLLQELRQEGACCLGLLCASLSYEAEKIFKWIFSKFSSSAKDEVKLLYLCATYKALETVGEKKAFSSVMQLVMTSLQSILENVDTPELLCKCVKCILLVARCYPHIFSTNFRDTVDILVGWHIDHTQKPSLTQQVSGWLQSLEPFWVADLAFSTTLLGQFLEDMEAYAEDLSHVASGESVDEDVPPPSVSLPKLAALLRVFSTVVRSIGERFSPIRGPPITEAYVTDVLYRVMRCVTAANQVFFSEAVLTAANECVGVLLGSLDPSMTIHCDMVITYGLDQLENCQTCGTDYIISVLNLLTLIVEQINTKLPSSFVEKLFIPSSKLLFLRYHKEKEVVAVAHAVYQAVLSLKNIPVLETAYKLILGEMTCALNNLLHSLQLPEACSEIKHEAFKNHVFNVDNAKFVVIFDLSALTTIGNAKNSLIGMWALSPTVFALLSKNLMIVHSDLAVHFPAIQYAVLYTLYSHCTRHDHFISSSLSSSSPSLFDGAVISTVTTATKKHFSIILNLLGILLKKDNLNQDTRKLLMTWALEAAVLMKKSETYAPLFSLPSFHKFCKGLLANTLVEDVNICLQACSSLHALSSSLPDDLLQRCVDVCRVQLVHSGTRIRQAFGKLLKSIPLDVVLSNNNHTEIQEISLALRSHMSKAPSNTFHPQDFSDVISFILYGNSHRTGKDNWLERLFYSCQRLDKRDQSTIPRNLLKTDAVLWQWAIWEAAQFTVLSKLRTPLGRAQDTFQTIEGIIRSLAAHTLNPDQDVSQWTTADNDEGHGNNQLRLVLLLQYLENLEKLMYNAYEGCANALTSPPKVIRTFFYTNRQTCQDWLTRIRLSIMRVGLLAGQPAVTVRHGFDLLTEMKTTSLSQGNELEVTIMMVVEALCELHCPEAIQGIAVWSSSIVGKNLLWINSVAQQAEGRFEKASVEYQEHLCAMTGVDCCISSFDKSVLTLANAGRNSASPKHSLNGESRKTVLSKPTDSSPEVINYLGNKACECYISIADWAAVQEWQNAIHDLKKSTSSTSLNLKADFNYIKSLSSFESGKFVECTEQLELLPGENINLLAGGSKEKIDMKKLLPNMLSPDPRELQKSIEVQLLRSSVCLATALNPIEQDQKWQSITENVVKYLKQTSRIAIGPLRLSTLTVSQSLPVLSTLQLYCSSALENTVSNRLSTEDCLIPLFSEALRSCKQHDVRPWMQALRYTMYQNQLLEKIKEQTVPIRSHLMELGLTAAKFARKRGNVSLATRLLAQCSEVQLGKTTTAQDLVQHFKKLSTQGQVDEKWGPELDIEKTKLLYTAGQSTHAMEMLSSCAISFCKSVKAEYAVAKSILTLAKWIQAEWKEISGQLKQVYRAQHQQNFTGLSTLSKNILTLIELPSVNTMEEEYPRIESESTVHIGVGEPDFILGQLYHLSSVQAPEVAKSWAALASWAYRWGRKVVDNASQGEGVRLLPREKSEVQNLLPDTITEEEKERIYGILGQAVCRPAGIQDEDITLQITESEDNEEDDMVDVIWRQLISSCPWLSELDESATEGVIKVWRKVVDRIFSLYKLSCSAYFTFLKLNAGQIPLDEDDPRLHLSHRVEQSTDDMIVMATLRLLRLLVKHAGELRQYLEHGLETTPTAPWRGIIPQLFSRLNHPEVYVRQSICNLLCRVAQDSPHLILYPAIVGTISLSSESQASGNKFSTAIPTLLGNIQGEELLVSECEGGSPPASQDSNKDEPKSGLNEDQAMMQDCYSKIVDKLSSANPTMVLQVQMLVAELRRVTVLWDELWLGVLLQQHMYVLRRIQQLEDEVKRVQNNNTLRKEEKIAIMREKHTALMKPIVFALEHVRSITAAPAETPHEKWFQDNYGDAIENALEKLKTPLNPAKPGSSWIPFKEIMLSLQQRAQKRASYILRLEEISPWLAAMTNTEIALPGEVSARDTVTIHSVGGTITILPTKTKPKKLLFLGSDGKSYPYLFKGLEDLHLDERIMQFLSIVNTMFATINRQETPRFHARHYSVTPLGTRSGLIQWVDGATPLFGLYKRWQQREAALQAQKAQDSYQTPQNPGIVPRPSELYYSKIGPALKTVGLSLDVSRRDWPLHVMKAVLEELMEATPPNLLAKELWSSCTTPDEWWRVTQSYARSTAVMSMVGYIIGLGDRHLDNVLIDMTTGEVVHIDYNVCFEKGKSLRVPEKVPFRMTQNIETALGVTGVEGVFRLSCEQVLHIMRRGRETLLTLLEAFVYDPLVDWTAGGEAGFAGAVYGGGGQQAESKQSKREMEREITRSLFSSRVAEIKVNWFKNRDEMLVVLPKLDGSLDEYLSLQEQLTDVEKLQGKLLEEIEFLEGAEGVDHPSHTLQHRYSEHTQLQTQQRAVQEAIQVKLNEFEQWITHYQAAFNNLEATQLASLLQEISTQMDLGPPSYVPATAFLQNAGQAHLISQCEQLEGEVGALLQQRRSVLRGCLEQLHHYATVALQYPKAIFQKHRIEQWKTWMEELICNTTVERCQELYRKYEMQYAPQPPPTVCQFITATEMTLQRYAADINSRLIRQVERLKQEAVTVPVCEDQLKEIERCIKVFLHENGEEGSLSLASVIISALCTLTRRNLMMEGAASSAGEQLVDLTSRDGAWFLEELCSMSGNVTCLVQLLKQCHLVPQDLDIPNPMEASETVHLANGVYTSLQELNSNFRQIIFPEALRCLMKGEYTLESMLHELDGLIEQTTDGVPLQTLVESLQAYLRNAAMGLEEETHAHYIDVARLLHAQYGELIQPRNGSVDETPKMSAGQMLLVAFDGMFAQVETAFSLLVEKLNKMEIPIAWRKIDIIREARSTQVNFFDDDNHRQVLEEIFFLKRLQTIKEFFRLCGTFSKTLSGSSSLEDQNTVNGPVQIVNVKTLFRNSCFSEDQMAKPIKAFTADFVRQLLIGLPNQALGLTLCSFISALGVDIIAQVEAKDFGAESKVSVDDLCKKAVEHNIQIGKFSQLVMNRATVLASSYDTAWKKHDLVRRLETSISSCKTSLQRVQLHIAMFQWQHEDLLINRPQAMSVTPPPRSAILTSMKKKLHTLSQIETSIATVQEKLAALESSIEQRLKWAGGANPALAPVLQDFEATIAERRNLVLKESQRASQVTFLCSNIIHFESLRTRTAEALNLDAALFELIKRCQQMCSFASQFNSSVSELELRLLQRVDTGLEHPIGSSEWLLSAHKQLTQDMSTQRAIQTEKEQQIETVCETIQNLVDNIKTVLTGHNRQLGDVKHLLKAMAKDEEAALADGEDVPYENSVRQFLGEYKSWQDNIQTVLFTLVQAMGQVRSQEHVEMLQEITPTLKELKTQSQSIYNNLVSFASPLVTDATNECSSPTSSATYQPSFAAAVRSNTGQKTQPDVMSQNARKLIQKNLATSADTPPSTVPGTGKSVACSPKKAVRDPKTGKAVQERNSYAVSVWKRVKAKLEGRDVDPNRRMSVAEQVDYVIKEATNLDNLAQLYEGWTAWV

| Molecule | IC50 [2] [nM] | EC50 ([1]; Mus musculus) [nM] | other results |
| --- | --- | --- | --- |
| 3-(6-chloro-4-methyl-1H-imidazo[4,5-c]pyridin-2-yl)-5-(2-fluoro-6-methoxyphenyl)-1,6-naphthyridin-2(1H)-one methanesulfonate [Example 130] | 1.6 |  | EC50 [1]: 11 nM; Snhg1 fold change ([3]; 10 mg/kg oral): 9.2 |
| C[C@@H](Nc1nc(Cl)cc2[nH]c(-c3cc4c(N5CCC(N(C)C)CC5)nccc4[nH]c3=O)nc12)C(F)(F)F [Example 8, 3-(6-chloro-4-{[(2R)-1,1,1-trifluoropropan-2-yl]amino}-1H-imidazo[4,5-c]pyridin-2-yl)-5-[4-(dimethylamino)piperidin-1-yl]-1,6-naphthyridin-2(1H)-one] | 1.8 | 36 | Snhg1 fold change ([3]; 30 mg/kg oral): 4.1 |
| CC1(C)CC(O)(c2nc(Cl)cc3[nH]c(-c4cc5cnccc5[nH]c4=O)nc23)CCO1 (stereo not shown) [Example 19, 3-[6-chloro-4-(4-hydroxy-2,2-dimethyltetrahydro-2H-pyran-4-yl)-1H-imidazo[4,5-c]pyridin-2-yl]-1,6-naphthyridin-2(1H)-one] | 2.4 | 111 | Snhg1 fold change ([3]; 100 mg/kg oral): 7.5 |
| O=c1[nH]c2ccnc(-c3ccccc3Cl)c2cc1-c1nc2cnc(Cl)cc2[nH]1 [Example 28, 3-(6-chloro-1H-imidazo[4,5-c]pyridin-2-y1)-5-(2-chlorophenyl)-1,6-naphthyridin-2(1H)-one] | 2 | 78 | Snhg1 fold change ([3]; 25 mg/kg oral): 8.8 |
| O=C1CCn2cc(cn2)-c2nccc3[nH]c(=O)c(cc23)-c2nc3c(nc(Cl)cc3[nH]2)N2CCCN1CC2 [Example 116, 7-chloro-3,8,10,14,18,19,23,27,34-nonaazaheptacyclo[20.6.2.2^10,14.1^2,5.1^18,21.0^4,9.0^26,30]tetratriacont-1(29),2,4,6,8,19,21(31),22(30),23,25-decaen-15,28-dione] | 1.2 | 38 |  |
| C[C@@H]1C[C@@H](F)CN1c1nc(Cl)cc2[nH]c(-c3cc4c(C5CCOCC5)nccc4[nH]c3=O)nc12 [Example 119, 3-{6-chloro-4-[(2R,4R)-4-fluoro-2-methylpyrrolidin-1-yl]-1H-imidazo[4,5-c]pyridin-2-yl}-5-(tetrahydro-2H-pyran-4-yl)-1,6-naphthyridin-2(1H)-one methanesulfonate] | 3.4 | 24 |  |
| C[C@@H]1C[C@H](O)CN1c1nc(Cl)cc2[nH]c(-c3cc4cnccc4[nH]c3=O)nc12 [Example 120, 3-{6-chloro-4-[(2R,4S)-4-hydroxy-2-methylpyrrolidin-1-yl]-1H-imidazo[4,5-c]pyridin-2-yl}-1,6-naphthyridin-2(1H)-one methanesulfonate] | 0.96 | 37 |  |
| Cc1nccc2[nH]c(=O)c(-c3nc4c(N5C[C@H](O)C[C@H]5C)nc(Cl)cc4[nH]3)cc12 [Example 121, 3-{6-chloro-4-[(2R,4R)-4-hydroxy-2-methylpyrrolidin-1-yl]-1H-imidazo[4,5-c]pyridin-2-yl}-5-methyl-1,6-naphthyridin-2(1H)-one methanesulfonate] | 1.4 | 46 |  |
| CCc1nccc2[nH]c(=O)c(-c3nc4c(N5CC[C@H](O)[C@H]5C)nc(Cl)cc4[nH]3)cc12 [Example 122, 3-{6-chloro-4-[(2R,3S)-3-hydroxy-2-methylpyrrolidin-1-yl]-1H-imidazo[4,5-c]pyridin-2-yl}-5-ethyl-1,6-naphthyridin-2(1H)-one methanesulfonate] | 2.2 | 28 |  |

Second part, led by results:

| IC50 [2] [nM] | EC50 ([1]; Mus musculus) [nM] | Molecule | other results |
| --- | --- | --- | --- |
| 0.99 | 28 | [2H]C([2H])([2H])Oc1ccccc1-c1nccc2[nH]c(=O)c(-c3nc4c(C)nc(Cl)cc4[nH]3)cc12 [Example 26, 3-(6-chloro-4-methyl-1H-imidazo[4,5-c]pyridin-2-yl)-5-{2-[(^2H3)methyloxy]phenyl}-1,6-naphthyridin-2(1H)-one] | Snhg1 fold change ([3]; 10 mg/kg oral): 12 |
| 2 | 56 | Cc1nc(Cl)cc2[nH]c(-c3cc4c(-c5ccccc5Cl)nccc4[nH]c3=O)nc12 [Example 29, 3-(6-chloro-4-methyl-1H-imidazo[4,5-c]pyridin-2-y1)-5-(2-chlorophenyl)-1,6-naphthyridin-2(1H)-one] | Snhg1 fold change ([3]; 30 mg/kg oral): 4.6 |
| 1.3 | 34 | Cc1nc(Cl)cc2[nH]c(-c3cc4c(-c5c(F)cccc5Cl)nccc4[nH]c3=O)nc12 [Example 31, 5-(2-chloro-6-fluorophenyl)-3-(6-chloro-4-methyl-1H-imidazo[4,5-c]pyridin-2-y1)-1,6-naphthyridin-2(1H)-one] | Snhg1 fold change ([3]; 10 mg/kg oral): 5.5 |
| 2.4 | 77 | Cc1ccccc1-c1nccc2[nH]c(=O)c(-c3nc4cnc(Cl)cc4[nH]3)cc12 [Example 32, 3-(6-chloro-1H-imidazo[4,5-c]pyridin-2-y1)-5-(2-methylpheny1)-1,6-naphthyridin-2(1H)-one] | Snhg1 fold change ([3]; 50 mg/kg oral): 12 |
| 2.2 | 25 | COc1ccccc1-c1nccc2[nH]c(=O)c(-c3nc4cnc(Cl)cc4[nH]3)cc12 [Example 34, 3-(6-chloro-1H-imidazo[4,5-c]pyridin-2-y1)-5-(2-methoxyphenyl)-1,6-naphthyridin-2(1H)-one] | Snhg1 fold change ([3]; 25 mg/kg oral): 6.2 |
| 1.4 | 40 | COc1cccc(F)c1-c1nccc2[nH]c(=O)c(-c3nc4cnc(Cl)cc4[nH]3)cc12 [Example 35, 3-(6-chloro-1H-imidazo[4,5-c]pyridin-2-y1)-5-(2-fluoro-6-methoxyphenyl)-1,6-naphthyridin-2(1H)-one] | Snhg1 fold change ([3]; 10 mg/kg oral): 4.6 |
| 1.2 | 11 | CCc1nc(Cl)cc2[nH]c(-c3cc4c(-c5cc(F)ccc5OC)nccc4[nH]c3=O)nc12 [Example 36, 3-(6-chloro-4-ethyl-1H-imidazo[4,5-c]pyridin-2-yl)-5-(5-fluoro-2-methoxyphenyl)-1,6-naphthyridin-2(1H)-one] | Snhg1 fold change ([3]; 10 mg/kg oral): 7.5 |
| 0.36 | 9.4 | [2H]C([2H])([2H])Oc1ccccc1-c1nccc2[nH]c(=O)c(-c3nc4c(CC)nc(Cl)cc4[nH]3)cc12 [Example 37, 3-(6-chloro-4-ethyl-1H-imidazo[4,5-c]pyridin-2-yl)-5-{2-[(^2H3)methyloxy]phenyl}-1,6-naphthyridin-2(1H)-one] | Snhg1 fold change ([3]; 10 mg/kg oral): 8.4 |
| 1.7 | 10 | [2H]C([2H])([2H])Oc1ccccc1-c1nccc2[nH]c(=O)c(-c3nc4c(C(C)C)nc(Cl)cc4[nH]3)cc12 [Example 38, 3-[6-chloro-4-(propan-2-yl)-1H-imidazo[4,5-c]pyridin-2-yl]-5-{2-[(^2H3)methyloxy]phenyl}-1,6-naphthyridin-2(1H)-one] | Snhg1 fold change ([3]; 30 mg/kg oral): 9.2 |
| 1.1 | 18 | CS(=O)(=O)O.[2H]C([2H])([2H])Oc1ccccc1-c1nccc2[nH]c(=O)c(-c3nc4c(N[C@H]5CCOC5)nc(Cl)cc4[nH]3)cc12 [Example 134, 3-{6-chloro-4-[(3S)-tetrahydrofuran-3-ylamino]-1H-imidazo[4,5-c]pyridin-2-yl}-5-(2-[(2H3)methyloxy]phenyl)-1,6-naphthyridin-2(1H)-one methanesulfonate] |  |
| 3.6 | 66 | CCc1nc(Cl)cc2[nH]c(-c3cc4c(-c5ccn(C(F)F)n5)nccc4[nH]c3=O)nc12 [Example 150, 3-(6-chloro-4-ethyl-1H-imidazo[4,5-c]pyridin-2-yl)-5-[1-(difluoromethyl)-1H-pyrazol-3-yl]-1,6-naphthyridin-2(1H)-one methanesulfonate] |  |
| 1.5 | 16 | CCc1nc(Cl)cc2[nH]c(-c3cc4c(-c5cc(C)n(C)n5)nccc4[nH]c3=O)nc12 [Example 151, 3-(6-chloro-4-ethyl-1H-imidazo[4,5-c]pyridin-2-yl)-5-(1,5-dimethyl-1H-pyrazol-3-yl)-1,6-naphthyridin-2(1H)-one methanesulfonate] |  |
